Data on nine compounds can be found in US8492428B2 (priority 2005, dated 2013).

“Also recorded” adds a separate entry of the source. Read-outs that look alike come from different tables or passages of the source.

As usually defined, the inhibition is the drop in the measured response relative to a control, in per cent. Usually melting point stands for the temperature, or range, at which the solid turns liquid. Usually Ki stands for the equilibrium dissociation constant of an inhibitor or competing ligand from its target.

Data set [1] deals with endopeptidase (LC) of botulinum neurotoxin serotype A (BoNTA) (Clostridium botulinum, UniProt P0DPI0). Description: biochemical. As to conditions: for inhibition at 100 µM: read-out: % Inhibition at 100 μM, BoNTA LC.
The target of data set [2] is endopeptidase (LC) of botulinum neurotoxin serotype B (BoNTB) (Clostridium botulinum, UniProt P10844). Description: biochemical. The data set is classed as biochemical. The settings on record: for inhibition at 100 µM: read-out: % Inhibition at 100 μM, BoNTB LC.
Data set [3] has as its target BoNTA light chain (Clostridium botulinum, UniProt P0DPI0). As to the kind of experiment: biochemical.

endopeptidase (LC) of botulinum neurotoxin serotype B (BoNTB), sequence (P10844 2-441 limits assumed): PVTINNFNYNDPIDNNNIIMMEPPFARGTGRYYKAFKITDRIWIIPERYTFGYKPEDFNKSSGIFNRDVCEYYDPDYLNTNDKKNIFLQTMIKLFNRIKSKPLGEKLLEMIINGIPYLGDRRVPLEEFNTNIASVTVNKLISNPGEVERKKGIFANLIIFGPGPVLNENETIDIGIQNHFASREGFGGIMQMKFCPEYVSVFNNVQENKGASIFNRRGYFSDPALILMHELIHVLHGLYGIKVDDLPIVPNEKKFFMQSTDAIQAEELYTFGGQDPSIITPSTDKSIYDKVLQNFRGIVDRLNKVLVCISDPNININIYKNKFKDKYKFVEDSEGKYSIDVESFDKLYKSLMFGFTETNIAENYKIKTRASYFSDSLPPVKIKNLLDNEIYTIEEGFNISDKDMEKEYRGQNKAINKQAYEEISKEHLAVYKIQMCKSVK
endopeptidase (LC) of botulinum neurotoxin serotype A (BoNTA), sequence (P0DPI0 2-448 limits assumed): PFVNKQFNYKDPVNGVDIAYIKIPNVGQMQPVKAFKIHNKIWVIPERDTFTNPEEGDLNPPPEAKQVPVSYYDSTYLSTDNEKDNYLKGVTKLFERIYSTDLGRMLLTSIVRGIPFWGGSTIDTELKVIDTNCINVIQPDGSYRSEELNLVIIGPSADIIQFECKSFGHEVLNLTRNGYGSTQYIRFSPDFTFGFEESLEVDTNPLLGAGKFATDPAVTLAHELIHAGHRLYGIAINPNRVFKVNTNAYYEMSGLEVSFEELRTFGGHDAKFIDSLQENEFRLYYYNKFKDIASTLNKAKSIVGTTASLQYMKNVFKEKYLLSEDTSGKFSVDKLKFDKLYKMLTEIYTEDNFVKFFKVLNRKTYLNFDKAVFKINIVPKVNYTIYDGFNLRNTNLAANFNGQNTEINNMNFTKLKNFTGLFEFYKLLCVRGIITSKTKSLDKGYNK
BoNTA light chain, sequence (P0DPI0 2-448 limits assumed): as above

`O=C(Cc1cc(C(=O)c2ccc3cc(-c4ccccc4)[nH]c3c2)sc1-c1ccccc1)NO` [Compound 9, N-Hydroxy-2-[2-phenyl-5-(2-phenyl-1H-indole-6-carbonyl)thiophene-3-yl]acetamide]: the “inhibition of the endopeptidase of BoNTA, in words (comparisons)” value (“inhibition of the endopeptidase of BoNTA” below) in data set [1] was “less potent in inhibiting the endopeptidase than 1 and 2”.

`Nc1cc(C(=O)c2cc(CC(=O)NO)c(-c3ccccc3)s2)ccc1I` [Compound 4, 2-[5-(3-Amino-4-iodobenzoyl)-2-phenylthiophene-3-yl]-N-hydroxyacetamide]: the melting point was > 170 °C (dec.). In data set [1], the “inhibition of the endopeptidase of BoNTA” value is recorded as “more active in inhibiting the endopeptidase than 2” and the inhibition at 100 µM was found to be 40%. For the same compound, in data set [2], the “effect on the endopeptidase of BoNTB, in words” value (shortened to “effect on the endopeptidase”) is on record as “no effect” and the inhibition at 100 µM was determined as 0%.

Consider `NNC(=O)Cc1cc(C(=O)c2ccc(I)c(N)c2)sc1-c1ccccc1` [Compound 7, [5-(3-Amino-4-iodobenzoyl)-2-phenylthiophene-3-yl]acetic acid hydrazide], for which the melting point lay in the range of 159 to 165 °C.

Regarding `O=C(O)Cc1cc(C(=O)c2ccc3cc(-c4ccccc4)[nH]c3c2)sc1-c1ccccc1` [Compound 8, [2-Phenyl-5-(2-phenyl-1H-indole-6-carbonyl)thiophene-3-yl]acetic acid], the “inhibition of the endopeptidase of BoNTA” value in data set [1] is “less potent in inhibiting the endopeptidase than 1 and 2”.

On to `Cl.NCCCCn1c(-c2ccccc2)cc2ccc(C(=O)c3cc(CC(=O)NO)c(-c4ccccc4)s3)cc21` [Compound 12, 2-{5-[1-(4-Aminobutyl)-2-phenyl-1H-indole-6-carbonyl]-2-phenylthiophene-3-yl}-N-hydroxyacetamide hydrochloride], for which, in data set [1], the “effect of adding more zinc on the inhibition of BoNTA” value is recorded as “no effect” and the inhibition at 100 µM amounted to 96%. Moreover, the inhibition at 15 µM in data set [1] (read-out: % inhibition of BoNTA at 15 μM) is 48%. Besides, the “effect on the endopeptidase” value in data set [2] (hydrochloride) is on record as “no effect; also recorded: did not inhibit”. Further, the inhibition at 100 µM in data set [2] was determined as 0%. The Ki in data set [3] is 12 ± 2.6 µM.

Take `O=C(O)Cc1cc(C(=O)c2ccc(Cl)cc2)sc1-c1ccccc1` [Compound 1, [5-(4-Chlorobenzoyl)-2-phenylthiophene-3-yl]acetic acid]: in data set [1], the inhibition at 100 µM came to 15%.

In turn, `O=C(Cc1cc(C(=O)c2ccc(I)c([N+](=O)[O-])c2)sc1-c1ccccc1)NO` [Compound 5, 2-[5-(3-Nitro-4-iodobenzoyl)-2-phenylthiophene-3-yl]-N-hydroxyacetamide] had a melting point of 147 to 151 °C.

Regarding `O=C(Cc1cc(C(=O)c2ccc(Cl)cc2)sc1-c1ccccc1)NO` [Compound 2, 2-[5-(4-Chlorobenzoyl)-2-phenylthiophene-3-yl]-N-hydroxyacetamide], in data set [1], the “inhibition of the endopeptidase of BoNTA” value was “more active in inhibiting the endopeptidase than 1” and the inhibition at 100 µM turned out to be 30%. Further, in data set [2], the “effect on the endopeptidase” value is “no effect” and the inhibition at 100 µM stood at 0%.

Compound `NNC(=O)Cc1cc(C(=O)c2ccc(Br)cc2)sc1-c1ccccc1` [Compound 6, [5-(4-Bromobenzoyl)-2-phenylthiophene-3-yl]acetic acid hydrazide] returned a melting point of 157 to 161 °C.
